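Exposure lasted 48 hours, with cells grown in 96-well plates and compounds tested at five concentrations. The concentration for 50% growth inhibition is given as GI50.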 Active and inactive are the calls of the source. No stated cut-off is given here; in the data, active = GI50 up to about 1.1 µM and inactive = higher.
Columns and labels:
Experiment in all cases: NCI tumour cell line growth inhibition, 48 h
A549 = tested on: A549
ACHN = tested on: ACHN
CAKI-1 = tested on: CAKI-1
CCRF-CEM = tested on: CCRF-CEM
COLO 205 = tested on: COLO 205
DU-145 = tested on: DU-145
HCC 2998 = tested on: HCC 2998
HL-60 = tested on: HL-60
HOP-92 = tested on: HOP-92
Hs-578T = tested on: Hs-578T
M14 = tested on: M14
MCF7 = tested on: MCF7
MDA-MB-435 = tested on: MDA-MB-435
NCI-H23 = tested on: NCI-H23
OVCAR-3 = tested on: OVCAR-3
OVCAR-4 = tested on: OVCAR-4
SF-268 = tested on: SF-268
SK-MEL-2 = tested on: SK-MEL-2
SNB-75 = tested on: SNB-75
SW-620 = tested on: SW-620

Measured: GI50

CCC(=O)Nc1ccc(N2C(=O)C(Cl)C2c2ccc(SC)cc2)cc1 (stereo not given)
inactive: A549 > 100 µM | ACHN > 100 µM | CAKI-1 > 100 µM | CCRF-CEM 26.9 µM | COLO 205 40.4 µM | DU-145 > 100 µM | HCC 2998 30.9 µM | HL-60 78.3 µM | HOP-92 > 100 µM | Hs-578T > 100 µM | M14 > 100 µM | MCF7 56.2 µM | MDA-MB-435 63.7 µM | NCI-H23 > 100 µM | OVCAR-3 81.5 µM | OVCAR-4 33.5 µM | SF-268 60.3 µM | SK-MEL-2 65 µM | SNB-75 > 100 µM | SW-620 > 100 µM

CC(C)(Br)C(=O)C(Br)Br
inactive: A549 16.6 µM | ACHN 10.5 µM | CAKI-1 1.95 µM | CCRF-CEM 1.51 µM | COLO 205 2.74 µM | DU-145 33.7 µM | HCC 2998 17.1 µM | HL-60 1.9 µM | HOP-92 1.7 µM | Hs-578T 6.89 µM | M14 2.44 µM | MCF7 6.38 µM | MDA-MB-435 5.58 µM | NCI-H23 4.61 µM | OVCAR-3 6.89 µM | OVCAR-4 5.09 µM | SF-268 14 µM | SK-MEL-2 13 µM | SNB-75 13.7 µM | SW-620 1.89 µM

C#CCNC(=O)NC(CCCCNC(=O)OCc1ccccc1)C(=O)OCc1ccccc1 (stereo not given)
inactive: A549 > 77.6 µM | ACHN 40.1 µM | CAKI-1 > 74 µM | CCRF-CEM 49.8 µM | COLO 205 21.7 µM | DU-145 > 100 µM | HCC 2998 31.5 µM | HL-60 16 µM | HOP-92 18.7 µM | Hs-578T > 100 µM | M14 22.7 µM | MCF7 > 100 µM | MDA-MB-435 22.8 µM | NCI-H23 76.2 µM | OVCAR-3 62.2 µM | OVCAR-4 > 100 µM | SF-268 67.6 µM | SK-MEL-2 16.6 µM | SNB-75 16.2 µM | SW-620 > 100 µM

CC1=C(C(=O)c2ccccc2)C23C(=O)N(c4ccccc4)C(=O)C2=C(O)C=CC3(O)N1 (stereo not given)
inactive: A549 50.2 µM | ACHN 15.9 µM | CAKI-1 28.9 µM | CCRF-CEM 35.1 µM | COLO 205 50.8 µM | DU-145 44.1 µM | HCC 2998 26.7 µM | HL-60 16.6 µM | HOP-92 17.5 µM | Hs-578T > 100 µM | M14 40.2 µM | MCF7 38.3 µM | MDA-MB-435 40 µM | NCI-H23 44.2 µM | OVCAR-3 21.4 µM | OVCAR-4 17.8 µM | SF-268 38.6 µM | SK-MEL-2 21 µM | SNB-75 24.2 µM | SW-620 25.9 µM

CC1=C(/C=C/C(C)=C/C=C/C(C)=C/C(=O)O)C(C)(C)CCC1 [TRETINOIN]
inactive: A549 39.9 µM | ACHN 48.5 µM | CAKI-1 > 70.6 µM | CCRF-CEM 44.3 µM | COLO 205 49.3 µM | DU-145 55.3 µM | HCC 2998 51.6 µM | HL-60 18 µM | HOP-92 > 63.8 µM | Hs-578T > 43 µM | M14 49.4 µM | MCF7 29 µM | MDA-MB-435 > 58.5 µM | NCI-H23 55.3 µM | OVCAR-3 46.6 µM | OVCAR-4 > 70 µM | SF-268 > 62.5 µM | SK-MEL-2 28.9 µM | SNB-75 > 61.9 µM | SW-620 45.8 µM

— ChEMBL document CHEMBL1201862, “PubChem BioAssay data set” (2004)
